Legend:
Assay type in all cases: cell-based, human
ICAM-1, IL-1β, and IL-1α = assay: Gene expression in VSMC in presence or absence of pertussis toxin (PTX); settings: RvD2 10 nM; PTX 100 ng/ml; TNF-α
Protocol: Cells are plated onto 6-well plates at 100% confluency in DMEM plus 10% FBS and allowed to attached overnight. Cells are then made quiescent by placing in serum-free media for 48-72 hours prior to start of experiments. Cells are treated with or without RvD1 or RvD2 at the indicated concentrations for one hour followed by co-incubation with cytokine (TNF-α 10 ng/ml) for up to 18 hours. In a separate set of experiments to examine the role of G-protein receptors, VSMCs are exposed to TNF-α and RvD2 (10 nM) as described above, in the presence or absence of pertussis toxin (PTX 100 ng/ml). Total RNA from rabbit sample or cells is isolated with PureLink RNA Mini kit (Ambion Life Technologies, Carlsbad, Calif.) with RNase-free DNase treatment according to manufacturer's protocol. One microgram of total RNA (from either VSMC or rabbit tissue) is used to generate cDNA using High Capacity cDNA Reverse Transcription Kit (Applied Biosystems, Foster City, Calif.) for subsequent RT-PCR reactions. Sybrgreen Amplified DNA is detected by incorporation SYBR Green (Qiagen, Germantown, Md.). […]
FIG. 9: Effects of RvD2 on gene expression in VSMC are sensitive to pertussis toxin (PTX). […] RNA was harvested and analyzed for the expression of ICAM-1, IL-1β, and IL-1α by qPCR (n=3, results are mean±SEM, **P<0.01, *P<0.05, one-way ANOVA followed by Bonferroni's post hoc test).

TNF-α-stimulated VSMC = assay: U937 monocyte adhesion to TNF-α-stimulated VSMC (Maresin-1); settings: 1-100 nM, 30 min pretreatment; TNFα 10 ng/ml 4 hr
Protocol: MaR-1. VSMCs and ECs were seeded on a 96 well plate (20000 cells/well for VSMCs and 50000 cells/well for ECs) and after 2 days, were treated with Maresin-1 (1-100 nM) for 30 min followed by TNF-α for 4 hr and then calcein AM-labeled U937 cells were added on top of the VSMCs. After 15-minute incubation at 37 C, unbound cells were washed off with cold PBS. Fluorescence measurements (ex 494 nm, em 517 nm) of bound monocytes were taken with a plate reader. For capturing images, the assay was performed in 8-well chamber slides (Nunc Labtek) and images were taken after cold PBS wash (three times) following U937 incubation.
FIGS. 15A-15D. Representative images of Calcein-AM labeled U937 monocytes adhered to human sv-VSMCs pretreated with vehicle (A, B) or 7S-Maresin-1 (C) or 7S-Maresin-1 and pertussis toxin (D) for 30 min, followed by TNFα at 10 ng/ml for 4 hr (B, C, D). (E) Quantitative analysis of U937 adhesion assay in human sv-VSMCs and (F) human sv-ECs (1 ng/ml TNFα used for EC cells). […] Bar graph represents net quantitative densitometry analysis. […] Expression of MCP-1 was measured by qRT-PCR, and normalized to unstimulated cells (n=3, results are mean±SEM, P<0.05 for Mar-1 (10 and 100 nM) vs TNF alone, unpaired t-test).

NOX4 = assay: TNFα induced NADPH-oxidase 4 expression, western blot; settings: 30 min pretreatment, TNFα 10 ng/ml 4 hr; sv-VSMCs
Protocol: Mar-1. VSMCs and ECs were lysed in buffer (20 mM Tris-Hcl, 137 mM NaCl, 10% Glycerol, 1% NP-40) with protease and phosphatase inhibitors (Halt inhibitor capsules, Pierce, Inc) by sonication on ice. The lysates were instantly snap frozen in liquid nitrogen and thawed back later for western blotting. After centrifugation (15,000 g for 20 minutes), the whole cell extract (supernatant) was collected and was heated at 100° C. in Laemlli buffer for 6 minutes. Lysates were run on Mini-Protean TGX gels
(Biorad) and transferred on PVDF membranes which were probed with appropriate primary and secondary antibodies and visualized for quantitation using q-dot nanocrystals (Life Technologies, Inc).
NADPH oxidases (NOX) are the dominant source of superoxide generation in blood vessels and have been strongly implicated in vascular injury. NOX4 is a dominant isoform bound in VSMC and blood vessels. Regulation of NOX4 expression and activity therefore is of interest. Human sv-VSMCs were pretreated with 7S-Maresin-1 or vehicle for 30 min, followed by TNFα at 10 ng/ml for 4 hr. Whole cell lysates were blotted for NOX4 (Abcam Inc.) and beta-actin (Sigma).
FIG. 14. NOX4 and beta-actin western blotting image is representative of three independent experiments. Bar graph represents net quantitative densitometry analysis. N=3. […]

SMILES | effect of pertussis toxin on inhibition of ICAM-1, IL-1β, and IL-1α gene expression (ICAM-1, IL-1β, and IL-1α) | monocyte adhesion (U937) to TNF-α-stimulated VSMC (TNF-α-stimulated VSMC) | TNFα induced NADPH-oxidase 4 expression (NOX4)
CC/C=C\C[C@H](O)[C@H](O)/C=C/C=C/C=C\C=C\[C@@H](O)C/C=C\CCC(=O)O [RvD2, resolvin D2] | abrogation of the inhibitory effects | – | –
CC/C=C\C/C=C\C[C@H](O)\C=C/C=C/C=C/[C@@H](O)C/C=C\CCC(=O)O [7S-Maresin-1, 7S,14R-dihydroxydocosa-4Z,8E,10Z,12Z,16Z,19Z-hexaenoic acid] | – | dose-dependent inhibition | Attenuates
